Patent US7795225B2, “Anti-chrondrosarcoma compounds” (priority 2003, dated 2010)
Entries after “also recorded” stand apart in the source; their conditions may differ. Where no end group is shown, it is not given here.

What was measured:
C57BL6/KsJ db/db mice = experiment: Wound healing in db/db diabetic mice; format: in vivo; details: single dose 5 μL of 20 μg/mL at day zero, saline control 14 days
Excerpt: Wounds were created in C57BL6/KsJ db/db mice with a 4 mm biopsy punch. The mice were obtained from The Jackson Laboratories and were aged 3-7 months before the onset of the wounding protocol. All mice were anesthetized prior to wounding. Two wounds were introduced onto the upper back of each animal by pulling the skin away from underlying structures and pushing the punch through the isolated skin. Typically, wounds were created to an average depth of 1.7 mm, with a range of 1.3 to 2.2 mm. No muscle involvement occurred during the course of wounding.
Each day the wounds were digitally photographed and wound areas were determined by computer integration of the photographs. All wound treatments and the subsequent data analyses were performed in a blind manner (see e.g., Brown et al., 1994). Wound area at the time of wounding (day 0) was arbitrarily set to a relative value of 1 for all wounds; such that subsequent wound areas were converted to relative wound areas by dividing the wound area at day n by the wound area at day zero.

MMP-9 = biological target: T1, MMP-9 (Homo sapiens, UniProt P14780); experiment: Fluoresceinated collagen hydrolysis assay (fluorescein release); format: biochemical; details: extended time assay, FIG. 8
T1 construct: Active MMP-9 enzyme was purchased from Calbiochem; purchased Calbiochem
Procedure: Two enzymatic assays were performed. The first assay measured the enzymatic hydrolysis of fluoresceinated collagen by MMP-9 as a function of time. […] The protein mixture was added to the collagen substrate, and was quickly mixed. Fluorescence emission intensity at 520 nm was measured as a function of time (excitation wavelength 495 nm) in a Shimadzu RF5301 fluorimeter (Lakowicz, 1983). The fluorescein release assay was used to determine the inhibitory constant (Ki) of the peptide inhibitor ([I]) according to Segel (1993) via the use of Dixon plots (1/v vs. [I]), such that: slope=Km /(V max Ki [S]) (1) where Km is the Michaelis constant, Vmax is the reaction maximum velocity, and [S] is the substrate concentration.

[1] = system: Human chondrosarcoma cells (SW1351); experiment: Chondrosarcoma cell proliferation (CellTiter 96 Aqueous One, absorbance 490 nm); format: cell-based
Procedure: Human chondrosarcoma cells (SW1351) were purchased from the American Type Culture Collection (ATCC No. HTB-94). A frozen vial of cells was thawed by gentle agitation in a 37° C. water bath for about 2 minutes. The vial was decontaminated with 70% ethanol and the cells were transferred to a T75 flask containing pre-wanned Leibovitz's L-15 medium (ATCC Catalog No. 30-2008) with 10% fetal bovine serum. The culture as incubated at 37° C. until 80% confluence. The culture medium was removed and the cells were dissociated from the T75 flask using 3 ml 0.25% trypsin, 0.03 mM EDTA at 37° C. After incubation for 5 minutes, 8 ml culture medium was added to stop trypsinization. The cells were counted with trypan blue and then seeded in 96 well plates at a density of about 2500 cells/well.
Six separate cell cultures were tested at each concentration of each peptide (n=6). Control cells received culture medium only.
Cell cultures were then incubated at 37° C. in an atmosphere of 5% CO2. Cell proliferation was determined after 18 or 72 hr by using the CellTiter 96 Aqueous One Solution purchased from Promega (Catalog No. TB245). Briefly, the CellTiter solution was warmed up to room temperature. Twenty microliters of the solution was added to each well. Cells were incubated at 37° C. for 1-2 hours. The absorbance at 490 nm was then recorded using a 96 well plate reader. The data were statistically analyzed using a Student T test. Differences were considered significant at the level of p<0.05.

pro-MMP-9 = pro-MMP-9 (Homo sapiens, UniProt P14780); experiment: Anti-activation (anti-splicing) assay: conversion of pro-MMP-9 by stromilysin, HPLC; format: biochemical; details: 0.5 and 1.0 μM peptide, FIG. 12
Procedure: The assay measured how much proenzyme was converted into mature matrix metalloproteinase. Proenzyme pro-MMP-9 (100 μg) was mixed with 0.5 μg of stromilysin in PBS. The reaction was incubated at 35° C. Aliquots were removed from the reaction over an 80 minute time course. […] The zero (injection) time point was a single peak that elutes from the column in approximately 750 seconds. This peak reduced in size as a function of time, and two new peaks appeared. The first peak eluted at approximately 800 seconds, and represented the mature form of MMP-9. The second peak eluted at approximately 1100 seconds, and corresponded to the N-terminal pro-domain fragment. Peak areas were determined by integrating over the elution profile, and the percent area changes were plotted.
The first peak, eluting at approximately 700 seconds, is pro-MMP-9. As the splicing reaction proceeds, this peak decreases in intensity (as marked with the downwards arrow), and two new peaks appear. The first new peak, eluting at approximately 800 seconds, is mature and active MMP-9. The second new peak, eluting at approximately 1050 seconds, is the prodomain. As the splicing reaction proceeds, the intensity of these two peaks increases (as marked with the upwards arrows). When the reaction is complete, there is no detectable pro-MMP-9 remaining.

T1 sequence (P14780 107-707 limits assumed): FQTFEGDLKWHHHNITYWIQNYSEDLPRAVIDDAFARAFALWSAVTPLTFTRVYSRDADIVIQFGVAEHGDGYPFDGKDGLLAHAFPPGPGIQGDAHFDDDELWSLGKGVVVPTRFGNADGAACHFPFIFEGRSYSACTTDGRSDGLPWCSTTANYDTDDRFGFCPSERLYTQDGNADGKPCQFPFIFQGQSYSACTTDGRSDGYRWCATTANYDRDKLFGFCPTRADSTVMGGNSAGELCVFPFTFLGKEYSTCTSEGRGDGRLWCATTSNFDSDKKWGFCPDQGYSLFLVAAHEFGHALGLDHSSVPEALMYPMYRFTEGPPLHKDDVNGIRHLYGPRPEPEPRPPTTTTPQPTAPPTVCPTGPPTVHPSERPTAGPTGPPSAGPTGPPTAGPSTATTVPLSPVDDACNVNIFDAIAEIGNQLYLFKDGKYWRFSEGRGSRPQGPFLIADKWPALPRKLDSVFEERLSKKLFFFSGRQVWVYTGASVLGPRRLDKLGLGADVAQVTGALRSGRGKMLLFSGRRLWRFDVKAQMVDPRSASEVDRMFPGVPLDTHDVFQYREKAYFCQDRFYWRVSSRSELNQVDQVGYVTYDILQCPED
pro-MMP-9, sequence (P14780 20-707): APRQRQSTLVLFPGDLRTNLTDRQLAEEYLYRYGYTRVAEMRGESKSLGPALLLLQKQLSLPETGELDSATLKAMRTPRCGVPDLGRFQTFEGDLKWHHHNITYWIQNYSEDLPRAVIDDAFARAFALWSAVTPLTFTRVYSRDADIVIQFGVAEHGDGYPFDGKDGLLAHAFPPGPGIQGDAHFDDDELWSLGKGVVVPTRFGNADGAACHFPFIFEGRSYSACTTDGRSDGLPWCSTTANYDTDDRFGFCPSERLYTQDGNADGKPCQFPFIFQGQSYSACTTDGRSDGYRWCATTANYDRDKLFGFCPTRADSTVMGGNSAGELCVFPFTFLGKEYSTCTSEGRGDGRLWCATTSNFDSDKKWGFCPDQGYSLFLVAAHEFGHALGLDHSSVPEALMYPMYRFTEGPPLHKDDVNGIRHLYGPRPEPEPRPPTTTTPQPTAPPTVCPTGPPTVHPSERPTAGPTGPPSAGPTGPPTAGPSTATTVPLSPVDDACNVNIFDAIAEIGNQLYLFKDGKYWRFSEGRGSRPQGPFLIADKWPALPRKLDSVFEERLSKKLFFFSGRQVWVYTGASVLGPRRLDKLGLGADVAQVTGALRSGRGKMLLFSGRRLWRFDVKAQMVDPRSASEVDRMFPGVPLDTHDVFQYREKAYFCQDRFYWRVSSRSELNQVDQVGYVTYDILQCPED

| Compound | time to full wound closure post wounding (C57BL6/KsJ db/db mice) | period of time of effective inhibition of MMP-9 catalyzed hydrolysis of collagen (MMP-9) | chondrosarcoma cell proliferation vs untreated cells ([1]; 18 hours, 10^−4 M, p<0.05) | chondrosarcoma cell proliferation vs untreated cells ([1]; 72 hours, 10^−4 M, p<0.05) | inhibition of splicing (conversion of pro-MMP-9 into prodomain and active enzyme) (pro-MMP-9) | chondrosarcoma cell proliferation vs untreated cells ([1]; 18 hr, three concentrations tested (10^−6, 10^−5, 10^−4 M)) | chondrosarcoma cell proliferation vs untreated cells ([1]; 72 hours, 10^−5 M, p<0.05) |
| --- | --- | --- | --- | --- | --- | --- | --- |
| CC(C)[C@H](NC(=O)[C@H](CC(=O)O)NC(=O)[C@@H]1CCCN1C(=O)[C@H](CC(N)=O)NC(=O)CNC(=O)[C@H](CS)NC(=O)[C@H](CCCNC(=N)N)NC(=O)[C@@H]1CCCN1)C(=O)N[C@@H](C)C(=O)N[C@@H](CC(N)=O)C(=O)N[C@@H](Cc1ccc(O)cc1)C(=O)N[C@@H](CC(N)=O)C(=O)N[C@@H](Cc1ccccc1)C(=O)N[C@@H](Cc1ccccc1)C(=O)N1CCC[C@H]1C(=O)N[C@@H](CCCNC(=N)N)C(=O)N[C@@H](CCCCN)C(=O)N1CCC[C@H]1C(=O)N[C@@H](CCCCN)C(=O)O [19-mer] | 9 days | > 1000 min | significantly inhibits or depresses growth; also recorded: significantly inhibited | substantially less | inhibited in a dose dependent manner | – | – |
| NYNFFPRKPK [10-mer] | – | – | – | substantially less | – | did not show any significant effect | – |
| PRCGNPDVA [9-mer] | – | – | significantly inhibits or depresses growth; also recorded: significantly inhibited | substantially less | – | – | significantly reduced |
